Our source for the IC50 and responders values is patent US20130053381A1, “2,4-DIOXO-1,4-DIHYDRO-2H-QUINAZOLIN-3-YL-SULFONAMIDE DERIVATIVES” (NOVARTIS AG, priority 2010, published 2013).

For one experiment, the target named is AMPA receptor. Description: [3H]CNQX binding test (AMPA-receptor binding). Details: species or system rat. The conditions noted are these: Table 2 parent compounds; rat; read-out: [3H]CNQX IC50 AMPA receptor binding, rat. As to the method:
CNQX binding test (Honore et al. Biochem. Pharmacol. 1989, 38: 3207-3212). This test is performed as follows.
Brain membranes: The animals are sacrificed, the brain removed and homogenized in 10 volumes of ice-cold 10% sucrose with a glass/Teflon homogenizer at positions 5 for 30 sec. The membranes are centrifuged at 1000×g for 10 min, and the supernatant centrifuged at 20,000×g for 15 min. The resulting pellet is resuspended in 10 volumes of cold water with a tissue homogenizer (Brinkman Polytron) at position 5 for 15 sec and the suspension centrifuged at 8000×g for 10 min. The supernatant including the buffy layer is centrifuged at 40,000×g for 20 min, the pellet resuspended in 5 volumes of water and the suspension frozen (20-30 min in dry ice/MeOH) and thawed (water-bath at 37° C.) twice. The suspension is centrifuged at 40,000×g for 20 min, the pellet resuspended in 50 mM HEPES/KOH, pH 7.5, and centrifuged at 40,000×g for 10 min. The final pellet is resuspended with a glass/Teflon homogenizer in 5 volumes of HEPES/KOH buffer; 2 mL aliquots are frozen and stored in liquid nitrogen.
Pretreatment of membranes: Membranes are thawed at 35° C. and once washed with 50 mM HEPES/KOH by centrifugation at 39,000×g for 10 min. The final pellet is resuspended with a glass/Teflon homogenizer in the same buffer.
Radioligand binding assay: It is performed using 96-well microtiterplates in a volume of 0.3 mL of 50 mM HEPES/KOH, pH 7.2, 100 μg membrane protein, 5 nM [^3H]-CNQX (NEN) and the compound to be tested. Incubation is performed at 4° C. for 40 min and the reaction is terminated by centrifugation (Sigma 4K10) at 3700×g for 30 min. The pellet is washed once with cold buffer and then dissolved in 0.02 mL of the tissue solubilizer Soluene for 20 min. Two hundred μL of the scintillation fluid Microscint 20 (Packard) are added and the radioactivity is counted in a Packard Topcount scintillation counter at an efficiency of 40-45%. Nonspecific binding is defined by 10 μM CNQX. Assays are performed in triplicate.

A further experiment concerns OF1 mice. Description: Maximal electroshock test (MES Test). In kind it is in vivo. The conditions noted are these: Mus musculus, po; 50 mg/kg, p.o., pre-treatment time −1 h; read-out: %-Protection. In a few lines: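 Compound given p.o. (typically 50 mg/kg) 1 h before tonic-clonic convulsions were induced via temporal electrodes (50 Hz, 18 mA, 0.2 s); seizure lasting 3 s or less counted as protection. Read-out is percent protected of five mice per condition; ED50 calculated, blood exposure sampled after shock.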
Background: Protection in the maximal electroshock model is a classic sign of anticonvulsant action.

As for `CCC(O)c1cc2c(=O)n(NS(C)(=O)=O)c(=O)[nH]c2cc1C(F)(F)F` (stereo not shown) [Example 12.0, N-[6-(1-hydroxy-propyl)-2,4-dioxo-7-trifluoromethyl-1,4-dihydro-2H-quinazolin-3-yl]-methanesulfonamide], the IC50 on AMPA receptor stood at 162 nM. The responders at 50 mg/kg in the experiment with OF1 mice was found to be 40%.
Regarding `CCc1cc2[nH]c(=O)n(NS(C)(=O)=O)c(=O)c2cc1-c1ccnn1CC` [Example 13.0, N-[7-ethyl-6-(2-ethyl-2H-pyrazol-3-yl)-2,4-dioxo-1,4-dihydro-2H-quinazolin-3-yl]-methanesulfonamide], the IC50 at AMPA receptor came out at 341 nM. The responders at 50 mg/kg in the experiment with OF1 mice came out at 60%.

The term IC50 denotes the concentration that gives 50% inhibition.
